Source: US4999424A, “GAR transformylase inhibitor” (The Pennsylvania State University, priority 1988, dated 1991)

Biological target: T1, GAR TFase (L1210) (Mus musculus, UniProt Q64737)
T1 construct: GAR TFase activity is the C-terminal domain of trifunctional Gart
T1 sequence (Q64737 2-1010): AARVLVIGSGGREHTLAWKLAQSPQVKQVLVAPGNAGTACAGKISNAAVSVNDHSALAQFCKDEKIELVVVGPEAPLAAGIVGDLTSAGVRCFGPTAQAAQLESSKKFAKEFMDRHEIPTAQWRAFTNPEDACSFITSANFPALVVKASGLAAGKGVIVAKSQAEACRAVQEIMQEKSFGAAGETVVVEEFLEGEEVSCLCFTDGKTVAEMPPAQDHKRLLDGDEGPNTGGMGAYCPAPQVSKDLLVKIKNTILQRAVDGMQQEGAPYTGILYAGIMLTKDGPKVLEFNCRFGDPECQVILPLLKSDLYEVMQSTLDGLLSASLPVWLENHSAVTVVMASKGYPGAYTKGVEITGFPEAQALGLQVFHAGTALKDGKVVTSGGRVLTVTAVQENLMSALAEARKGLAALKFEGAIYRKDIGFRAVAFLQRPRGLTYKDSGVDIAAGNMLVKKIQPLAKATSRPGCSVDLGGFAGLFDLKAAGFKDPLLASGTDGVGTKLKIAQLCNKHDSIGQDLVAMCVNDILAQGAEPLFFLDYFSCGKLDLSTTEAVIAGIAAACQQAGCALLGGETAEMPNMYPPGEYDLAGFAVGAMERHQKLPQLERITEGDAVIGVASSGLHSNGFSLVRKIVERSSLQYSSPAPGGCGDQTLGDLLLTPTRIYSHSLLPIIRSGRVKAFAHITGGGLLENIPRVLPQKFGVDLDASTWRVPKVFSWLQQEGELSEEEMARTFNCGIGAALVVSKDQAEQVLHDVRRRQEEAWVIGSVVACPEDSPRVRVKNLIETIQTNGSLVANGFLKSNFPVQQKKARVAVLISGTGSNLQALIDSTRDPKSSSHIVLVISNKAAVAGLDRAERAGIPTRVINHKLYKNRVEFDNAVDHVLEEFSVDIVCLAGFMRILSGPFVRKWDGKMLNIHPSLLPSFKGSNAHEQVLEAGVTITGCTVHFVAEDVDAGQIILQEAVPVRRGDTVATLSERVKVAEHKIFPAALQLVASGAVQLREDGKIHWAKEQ
Test: L1210 GAR TFase inhibition
Assay type: biochemical
Conditions: for Mode of inhibition: L1210 GAR TFase
Method: All assays were carried out by following the increase of 5,8-dideazafolate absorbence at 295 nm in buffered medium at 26° C. To initiate the reaction, enzyme (1 nM final concentration) was added to a mixture of saturating substrates and variable amounts of inhibitor. […] See, Morrison, Trends Biochem. Sc., 7, 102 (1982) and Morrison, et al., Adv. Enzymology, Relat. Areas Mol. Biol., 57, 201-301 (1987).
The specificity of beta-TGDDF for GAR TFase from species other than E. coli was assayed in a general manner by measuring the activity of GAR TFase at a concentration of 1 nM from avian, HeLa, and L121? sources in the presence of 20 nM beta-TGDDF.
This test, was conducted using the same [I]/[E]ratios as stated previously.
E. coli GAR TFase was prepared and purified as described below. L1210 and HeLa GAR TFase were purified according to published procedures. AICAR TFase was prepared according to published procedures.

SMILES: Nc1nc2ccc(CN(C(=O)CSCC(=O)N[C@@H]3O[C@H](COP(=O)(O)O)[C@@H](O)[C@H]3O)c3ccc(C(=O)N[C@@H](CCC(=O)O)C(=O)O)cc3)cc2c(=O)[nH]1 [beta-TGDDF, N^10-[5'-phosphoribosyl-1'-β-amino-carbonylmethyl-1-thioacetyl]-5,8-dideazafolate]
- Extent of inhibition (20 nM beta-TGDDF, 1 nM enzyme): inhibited by roughly the same magnitude
- Mode of inhibition: inhibition of a slow, tight binding nature
- Mode of inhibition (listed as Beta-TGDDF): slow, tight-binding inhibitor
